For 22 compounds, minimal effective dose and LD50 results are on record in ChEMBL document CHEMBL3272224, “Synthesis and hypotensive activity of N-alkyl-N"-cyano-N'-pyridylguanidines” (J Med Chem, 1978).

In data set [1] the test system is Rattus norvegicus. The experiment in a line: Hypotensive activity in po dosed spontaneously hypertensive Wistar-Okamoto rat assessed as dose required to cause 30 mmHg fall of blood pressure administered for 5 days. It counts as functional. The note with it: 120 h, read-out: MED.
A short description of data set [2]: Toxicity in po dosed mouse assessed as mortality after 7 days. The note with it: in vivo.

On to `Cc1noc(C)c1N/C(=N/C#N)NC(C)(C)C`, for which, in data set [1], the minimal effective dose is 10 mg/kg. Further, in data set [2], the LD50 at 168 h was more than 1000 mg/kg.
As for `CC(C)(C)N/C(=N\C#N)Nc1cnc2ccccc2c1`, in data set [1], the minimal effective dose turned out to be 20 mg/kg. In addition, in data set [2], the LD50 at 168 h is more than 1000 mg/kg.
Taken in the same sequence, the figures for `CC(C)(C)/N=C(\NC#N)Nc1ccncc1` were 2.5 mg/kg and more than 1000 mg/kg.
Taken in the same sequence, the figures for `CCC(C)(C)N/C(=N\c1ncccn1)Nc1cccnc1.Cl` were more than 35 mg/kg and 1000 mg/kg.
As for `CCC(C)(CC)/N=C(\NC#N)Nc1cccnc1`, the minimal effective dose in data set [1] amounted to 0.5 mg/kg. Also, the LD50 at 168 h in data set [2] is more than 1000 mg/kg.
The like results for `CC(C)CC(C)/N=C(\NC#N)Nc1ccncc1` (centres undefined) were, in that order, 35 mg/kg and 1000 mg/kg.
The like results for `CCOC(=O)/N=C(/Nc1cccnc1)NC(C)(C)CC` were, in that order, 20 mg/kg and 600 mg/kg.
Taken in the same sequence, the figures for `N#CN/C(=N\C(C1CC1)C1CC1)Nc1ccncc1` were 10 mg/kg and 600 mg/kg.
In the case of `CCCC/N=C(\NC#N)Nc1cccnc1`, the minimal effective dose in data set [1] was 20 mg/kg. The LD50 at 168 h in data set [2] is more than 1000 mg/kg.
Taken in the same sequence, the figures for `CO/N=C(/Nc1cccnc1)NC(C)(C)C` were 50 mg/kg and more than 1000 mg/kg.
The like results for `CC(/N=C(/NC#N)Nc1cccnc1)C(C)(C)C` (centres undefined) were, in that order, 1 mg/kg and 1000 mg/kg.
`Cc1cccc(C)c1N/C(=N/C#N)NC(C)(C)C`: the minimal effective dose in data set [1] was more than 50 mg/kg. Moreover, the LD50 at 168 h in data set [2] is more than 1000 mg/kg.
The like results for `CCC/N=C(\NC#N)Nc1cccnc1` were, in that order, 20 mg/kg and more than 1000 mg/kg.
Taken in the same sequence, the figures for `CC(C)(C)CC(C)(C)/N=C(\NC#N)Nc1cccnc1` were 50 mg/kg and more than 1000 mg/kg.
With `CCC(/N=C(\NC#N)Nc1ccncc1)C(C)C` (centres undefined), in data set [1], the minimal effective dose was 5 mg/kg. Moreover, the LD50 at 168 h in data set [2] stood at 600 mg/kg.
Taken in the same sequence, the figures for `CC(C)(C)C(C)(C)/N=C(\NC#N)Nc1cccnc1` were 50 mg/kg and more than 1000 mg/kg.
The like results for `N#CN/C(=N\c1ccccc1)Nc1ccncc1` were, in that order, 50 mg/kg and more than 1000 mg/kg.
Taken in the same sequence, the figures for `N#C/N=C(/Nc1ccncc1)NC12CC3CC(CC(C3)C1)C2` were 5 mg/kg and more than 1000 mg/kg.
With `CCC(C)(C)N/C(=N\C#N)NCc1ccncc1.O`, the minimal effective dose in data set [1] was found to be 20 mg/kg. Also, the LD50 at 168 h in data set [2] is more than 1000 mg/kg.
Consider `CCC(CC)(CC)/N=C(\NC#N)Nc1ccncc1`, for which the minimal effective dose in data set [1] is 2.5 mg/kg. Besides, the LD50 at 168 h in data set [2] was more than 1000 mg/kg.
Taken in the same sequence, the figures for `CCC(C)(C)/N=C(\Nc1cccnc1)Nc1nccs1` were 20 mg/kg and more than 1000 mg/kg.
The like results for `CCN(CC)CC/N=C(\NC#N)Nc1cccnc1` were, in that order, more than 8 mg/kg and 250 mg/kg.
